Test results: ChEMBL document CHEMBL1201862, “PubChem BioAssay data set” (2004)
Activity calls are given as the source filed them.

Tests used:
[1] = target: T1, Microphthalmia-associated transcription factor (Homo sapiens, UniProt O75030); assay: reducers of TRPM1 reporter luminescence, concentration series – cell-based, SK-MEL-5, cherry-picked, set 3, MITF inhibitor project, dose response (AID 493073); type: functional;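 note: SK-MEL-5 melanoma cells with luciferase driven by the MITF target TRPM1 promoter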
T1 sequence (O75030 whole entry): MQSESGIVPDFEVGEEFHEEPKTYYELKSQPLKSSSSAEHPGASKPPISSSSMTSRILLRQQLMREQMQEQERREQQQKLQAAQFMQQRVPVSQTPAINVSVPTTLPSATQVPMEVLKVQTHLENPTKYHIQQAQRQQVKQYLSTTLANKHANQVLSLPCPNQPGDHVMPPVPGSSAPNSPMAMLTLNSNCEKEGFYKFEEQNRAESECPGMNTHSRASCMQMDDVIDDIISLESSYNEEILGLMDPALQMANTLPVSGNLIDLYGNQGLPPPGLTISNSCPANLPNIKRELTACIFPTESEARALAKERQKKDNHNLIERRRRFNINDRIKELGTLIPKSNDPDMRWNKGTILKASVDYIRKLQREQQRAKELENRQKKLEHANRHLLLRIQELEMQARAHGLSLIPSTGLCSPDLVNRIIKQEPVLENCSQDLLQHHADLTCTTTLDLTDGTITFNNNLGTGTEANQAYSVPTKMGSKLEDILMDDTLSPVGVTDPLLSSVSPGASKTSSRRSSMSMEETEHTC

A-375 = assay: MITF: Counter assay: A375 proliferation Measured in Cell-Based System Using Plate Reader - 2084-03_Inhibitor_Dose_DryPowder_Activity. [Related pubchem assays (depositor defined):AID488944]; type: functional; conditions: Homo sapiens
[2] = target: T2, Ubiquitin-conjugating enzyme E2 N (Homo sapiens, UniProt P61088); type: functional;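 note: Dose-response confirmation in a TR-FRET assay detecting UBC13-driven polyubiquitin chain formation, inhibition measured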
T2 sequence (P61088 whole entry): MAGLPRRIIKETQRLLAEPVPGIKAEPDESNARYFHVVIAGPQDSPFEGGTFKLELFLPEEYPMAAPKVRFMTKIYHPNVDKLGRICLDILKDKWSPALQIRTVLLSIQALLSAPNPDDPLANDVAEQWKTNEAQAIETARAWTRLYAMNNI

[3] = viability of HCT116 lacking mutant beta-catenin – cell-based, human colon tumor, dose response (AID 1045); type: functional;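 note: HCT116 colon tumor cells with beta catenin knocked out; cells exposed to compound for 60 hours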
[4] = viability of PTEN-deleted HCT116 cells – cell-based, HCT116 PTEN knockout, dose response (AID 1047); type: functional;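 note: HCT116 colon tumor cells with PTEN knocked out; cells exposed to compound for 60 hours before readout; potency for loss of cell viability measured by luminescence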
[5] = Luminescence Cell-Based Dose Confirmation HTS to Identify Activators of 5'UTR Stem-Loop Driven Alpha-Synuclein mRNA Translation in H4 Neuroglioblastoma Cells. [Related pubchem assays: 1829 (Project Summary), 1814 (Primary HTS)]; type: functional
[6] = Luminescence Cell-Based Dose Response HTS to Identify Activators of Luciferase Translation or Activity in H4 […] Cells. [Related pubchem assays: 1829 (Project Summary), 1814 (Primary HTS)]; type: functional
HEK293 = assay: cells; type: functional, cell-based; conditions: Homo sapiens
H4 = assay: Luminescence Cell-Based Dose Response HTS to Identify Activators of 5'UTR Stem-Loop Driven Prion Protein mRNA Translation in H4 Neuroglioblastoma Cells. [Related pubchem assays: 1829 (Project Summary), 1814 (Primary HTS)]; type: functional; conditions: Homo sapiens
[7] = target: Nuclear receptor subfamily 0 group B member 1 (Homo sapiens, UniProt P51843); assay: Luminescence-based cell-based high throughput dose response assay for inhibitors of the orphan nuclear receptor subfamily 0, group B, member 1 (DAX1; NR0B1). [Related pubchem assays (depositor defined):AID504766, AID504790]; type: functional
[8] = Fluorescence polarization-based biochemical high throughput dose response assay for activators of the Protein Kinase A-R1A (PKA-R1A) complex. [Related pubchem assays (depositor defined):AID504704, AID504707, AID504799, AID504800]
[9] = Fluorescence polarization-based biochemical high throughput dose response assay for activators of the Protein Kinase A-R2B (PKA-R2B) complex. [Related pubchem assays (depositor defined):AID504700, AID504704, AID504796, AID504797]

Chain of Nuclear receptor subfamily 0 group B member 1 (P51843 whole entry): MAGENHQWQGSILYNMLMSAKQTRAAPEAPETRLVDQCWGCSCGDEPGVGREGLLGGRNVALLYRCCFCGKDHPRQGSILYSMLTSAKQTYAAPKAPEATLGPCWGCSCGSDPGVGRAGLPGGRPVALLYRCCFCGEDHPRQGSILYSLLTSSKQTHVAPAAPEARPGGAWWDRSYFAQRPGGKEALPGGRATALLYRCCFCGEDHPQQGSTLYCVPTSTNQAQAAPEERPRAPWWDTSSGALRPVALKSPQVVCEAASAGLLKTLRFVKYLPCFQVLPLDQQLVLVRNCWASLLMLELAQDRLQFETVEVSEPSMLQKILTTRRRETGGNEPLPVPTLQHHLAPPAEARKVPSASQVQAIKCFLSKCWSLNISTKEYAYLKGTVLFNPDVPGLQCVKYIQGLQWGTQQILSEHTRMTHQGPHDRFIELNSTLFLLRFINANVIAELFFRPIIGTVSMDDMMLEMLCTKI

With `COc1ccc(-c2nn(-c3ccccc3)cc2/C=N/N=C(N)N)cc1OC` the AC50 [1] was 14.6 µM (active), the AC50 (A-375) was 17.4 µM (active) and the IC50 [2] was > 20 µM (inactive). For the same molecule, the EC50 [3] was 4.78 µM (active) and the EC50 [4] was 4.55 µM (active).

With `COC(=O)c1cc2c(s1)-c1ccc(OC)cc1CC2` the EC50 [5] was 9.47 µM (active), the EC50 [6] was 18.7 µM (active) and the IC50 (HEK293) was > 22.5 µM (inactive). The EC50 (H4) was 46.2 µM (active) and the IC50 [7] was > 67.5 µM (inactive).

For `CCCC(=O)Nc1ncnc2c1ncn2[C@@H]1O[C@@H]2COP(=O)(O)O[C@H]2[C@H]1OC(=O)CCC`, the EC50 [8] was 12.3 µM (inactive) and the EC50 [9] was 11.7 µM (inactive).
